Results published in paper PMC6277767, “Broad and Region-Specific Impacts of the Synthetic Cannabinoid CP 55,940 in Adolescent and Adult Female Mouse Brains” (Frontiers in Molecular Neuroscience, 2018).

Tested on: CD1 female mouse brain lipidome
Test: Brain-region lipid levels (HPLC/MS/MS lipidomics) 2 h after single i.p. 3 mg/kg CP 55,940 vs vehicle
Type: in vivo
Procedure: The Bloomington Institutional Animal Care and Use Committee of Indiana University reviewed and approved the animal procedures. Female mice from the CD1 strain were utilized to match our study examining THC’s effects on the brain lipidome ([Leishman et al., 2018]). Mice were given a single i.p. injection of either 3 mg/kg CP or 1:1:18 cremophor:ethanol:saline vehicle (please refer to the section “3 mg/kg CP Is Relevant for Synthetic Cannabinoid Abuse and Has Stronger Effects on the Female Mouse Brain Lipidome During Adolescence” for a justification of dose and use of female mice). Three different age groups were given injections: PND 35 and PND 50 adolescents, and adult mice (PND 113). At least eight mice in each age group received CP and at least eight received vehicle. Matching the THC study time course ([Leishman et al., 2018]), mice were sacrificed via rapid decapitation 2 h after injection. Brains were immediately removed and flash-frozen in liquid nitrogen, and then stored at -80°C until dissections were performed. Brains were dissected on an ice-cold dissection plate into the following regions: STR, HIPP, CER, THAL, CTX, HYP, MID, and STEM. These abbreviations for these brain areas will be used exclusively when discussing the results generated by these specific dissections. Each dissected area was immediately placed in liquid nitrogen and then stored at -80°C until used for lipid extraction.
Tissue extracts were performed as previously described ([Bradshaw et al., 2006]; [Stuart et al., 2013]; [Raboune et al., 2014]; [Leishman et al., 2016a],[b], [2017], [2018]). First, samples were shock frozen in liquid nitrogen, weighed, and transferred to a centrifuge tube. The mass of the largest sample was multiplied by 50 to determine how many milliliters of HPLC-grade methanol (Fisher, Fair Lawn, NJ, United States) to add. Then, samples were spiked with 500 pmol deuterium-labeled NAGly (d8NAGly; Cayman Chemical, Ann Arbor, MI, United States). Samples were placed on ice in darkness for 2 h then individually homogenized and centrifuged at 19,000 × g for 20 min at 20°C. Supernatants were diluted with HPLC water (purified in house) to make a solution of 75% water, 25% supernatant. Lipids were partially purified on C18 solid phase extraction columns (Agilent, Palo Alto, CA, United States). A series of four elutions with 1.5 mL of 60%, 75%, 85%, and 100% methanol were collected ([Stuart et al., 2013]; [Leishman et al., 2016a],[b], [2018]).
As previously described ([Bradshaw et al., 2006]; [Tan et al., 2006]; [Smoum et al., 2010]; [Stuart et al., 2013]; [Tortoriello et al., 2013]; [Raboune et al., 2014]; [Leishman et al., 2016a],[b], [2017], [2018]), samples were analyzed using an Applied Biosystems API 3000 triple quadrupole mass spectrometer with electrospray ionization (Foster City, CA, United States). Using an Agilent XDB-C18 reversed phase analytical column and optimized mobile phase gradients, 20 μL from each elution were chromatographed. Two Shimadzu 10ADvp pumps (Columbia, MD, United States) provided the pressure for gradient elution. Mobile phase A: 20% methanol, 80% water (v/v) and 1 mM ammonium acetate (Sigma, St. Louis, MO, United States). Mobile phase B: 100% methanol, 1 mM ammonium acetate. Every method run began with 0% mobile phase B, reached 100% mobile phase B flowing at 0.2 mL/min, and gradually returned to 0% mobile phase B.
This screening library will be referred to as the lipidome when discussing data from this study. HPLC/MS/MS data were analyzed using Analyst software (Applied Biosystems) ([Bradshaw et al., 2006]; [Tan et al., 2006]; [Stuart et al., 2013]; [Tortoriello et al., 2013]; [Raboune et al., 2014]; [Leishman et al., 2016a],[b], [2017], [2018]). Chromatograms (Supplementary Figure 3) were generated by determining the retention time of analytes from the analytical column with a [M-1] or [M+1] parent peak and a fragmentation peak corresponding to the programmed values. […]

[1] = PND 35 midbrain, 3mg/kg, one-way ANOVA

## CCCCCCC(C)(C)c1ccc([C@@H]2C[C@H](O)CC[C@H]2CCCO)c(O)c1 [CP 55,940]
PND 35 midbrain, 3mg/kg
  N-docosahexaenoyl methionine: Magnitude (x Veh level): 0.77 x Veh level
  N-docosahexaenoyl serine: Magnitude (x Veh level): 0.77 x Veh level
  N-docosahexaenoyl tyrosine: Magnitude (x Veh level): 0.79 x Veh level
  N-docosahexaenoyl valine: Magnitude (x Veh level): 1.67 x Veh level
  N-linoleoyl ethanolamine: Magnitude (x Veh level): 1.24 x Veh level
  N-oleoyl GABA: Magnitude (x Veh level): 0.81 x Veh level
  N-oleoyl ethanolamine: Magnitude (x Veh level): 0.85 x Veh level
  N-oleoyl phenylalanine: Magnitude (x Veh level): 1.11 x Veh level
  N-oleoyl valine: Magnitude (x Veh level): 1.48 x Veh level
  N-palmitoyl leucine: Magnitude (x Veh level): 1.40 x Veh level
  N-palmitoyl phenylalanine: Magnitude (x Veh level): 1.31 x Veh level
  N-palmitoyl valine: Magnitude (x Veh level): 1.83 x Veh level
  N-stearoyl methionine: Magnitude (x Veh level): 1.15 x Veh level
  N-stearoyl tyrosine: Magnitude (x Veh level): 0.82 x Veh level
  N-stearoyl valine: Magnitude (x Veh level): 1.40 x Veh level
  PGE2: Magnitude (x Veh level): 1.15 x Veh level
  PGF2α: Magnitude (x Veh level): 1.22 x Veh level
  phoshoLEA: Magnitude (x Veh level): 1.41 x Veh level
[1]
  2-linoleoyl glycerol: Direction (rel to Veh): ↓
  6-ketoPGF1α: Direction (rel to Veh): ↓
  Arachidonic acid: Direction (rel to Veh): ↓
  N-arachidonoyl GABA: Direction (rel to Veh): ↓
  N-arachidonoyl alanine: Direction (rel to Veh): ↓
  N-arachidonoyl glycine: Direction (rel to Veh): ↓
  N-arachidonoyl serine: Direction (rel to Veh): ↓
  N-arachidonoyl taurine: Direction (rel to Veh): ↓
  N-arachidonoyl tyrosine: Direction (rel to Veh): ↓
  N-docosahexaenoyl GABA: Direction (rel to Veh): ↓
  N-docosahexaenoyl alanine: Direction (rel to Veh): ↓
  N-docosahexaenoyl glycine: Direction (rel to Veh): ↓
  N-docosahexaenoyl leucine: Direction (rel to Veh): ↑
  N-docosahexaenoyl methionine: Direction (rel to Veh): ↓
  N-docosahexaenoyl serine: Direction (rel to Veh): ↓
  N-docosahexaenoyl tyrosine: Direction (rel to Veh): ↓
  N-docosahexaenoyl valine: Direction (rel to Veh): ↑
  N-linoleoyl ethanolamine: Direction (rel to Veh): ↑
  N-oleoyl GABA: Direction (rel to Veh): ↓
  N-oleoyl ethanolamine: Direction (rel to Veh): ↓
  N-oleoyl phenylalanine: Direction (rel to Veh): ↑
  N-oleoyl valine: Direction (rel to Veh): ↑
  N-palmitoyl leucine: Direction (rel to Veh): ↑
  N-palmitoyl phenylalanine: Direction (rel to Veh): ↑
  N-palmitoyl valine: Direction (rel to Veh): ↑
  N-stearoyl methionine: Direction (rel to Veh): ↑
  N-stearoyl tyrosine: Direction (rel to Veh): ↓
  N-stearoyl valine: Direction (rel to Veh): ↑
  PGE2: Direction (rel to Veh): ↑
  PGF2α: Direction (rel to Veh): ↑
  phoshoLEA: Direction (rel to Veh): ↑
PND 35 striatum
  2-arachidonoyl-sn-glycerol mean level: 8.26E-11 moles per gram
  2-linoleoyl-sn-glycerol mean level: 6.79E-11 moles per gram
  2-oleoyl-sn-glycerol mean level: 6.52E-10 moles per gram
  2-palmitoyl-sn-glycerol mean level: 3.66E-10 moles per gram
  6-ketoPGF1α mean level: 5.31E-12 moles per gram
  Arachidonic acid mean level: 1.87E-09 moles per gram
  Linoleic acid mean level: 4.78E-10 moles per gram
  N- stearoyl valine mean level: 4.54E-13 moles per gram
  N-arachidonoyl GABA mean level: 7.34E-12 moles per gram
  N-arachidonoyl alanine mean level: 7.95E-12 moles per gram
  N-arachidonoyl ethanolamine mean level: 1.25E-11 moles per gram
  N-arachidonoyl glycine mean level: 2.49E-11 moles per gram
  N-arachidonoyl phenylalanine mean level: 5.08E-13 moles per gram
  N-arachidonoyl serine mean level: 2.14E-12 moles per gram
  N-arachidonoyl taurine mean level: 4.32E-11 moles per gram
  N-arachidonoyl tyrosine mean level: 3.18E-13 moles per gram
  N-docosahexaenoyl GABA mean level: 7.6E-13 moles per gram
  N-docosahexaenoyl alanine mean level: 3E-12 moles per gram
  N-docosahexaenoyl ethanolamine mean level: 1.6E-11 moles per gram
  N-docosahexaenoyl glycine mean level: 1.04E-11 moles per gram
  N-docosahexaenoyl leucine mean level: 5.34E-13 moles per gram
  N-docosahexaenoyl phenylalanine mean level: 5.57E-13 moles per gram
  N-docosahexaenoyl serine mean level: 9.97E-12 moles per gram
  N-linoleoyl alanine mean level: 1.57E-12 moles per gram
  N-linoleoyl ethanolamine mean level: 3.02E-11 moles per gram
  N-linoleoyl glycine mean level: 1.9E-12 moles per gram
  N-linoleoyl serine mean level: 4.58E-11 moles per gram
  N-oleoyl GABA mean level: 1.45E-12 moles per gram
  N-oleoyl alanine mean level: 6.67E-12 moles per gram
  N-oleoyl ethanolamine mean level: 6.1E-11 moles per gram
  N-oleoyl glycine mean level: 1.1E-11 moles per gram
  N-oleoyl leucine mean level: 1.08E-12 moles per gram
  N-oleoyl methionine mean level: 9.72E-13 moles per gram
  N-oleoyl phenylalanine mean level: 6.72E-13 moles per gram
  N-oleoyl serine mean level: 2.35E-10 moles per gram
  N-oleoyl tyrosine mean level: 1.91E-13 moles per gram
  N-oleoyl valine mean level: 3.53E-13 moles per gram
  N-palmitoyl GABA mean level: 3.96E-12 moles per gram
  N-palmitoyl alanine mean level: 1.47E-11 moles per gram
  N-palmitoyl ethanolamine mean level: 3.18E-11 moles per gram
  N-palmitoyl glycine mean level: 2.93E-11 moles per gram
  N-palmitoyl leucine mean level: 2.54E-12 moles per gram
  N-palmitoyl methionine mean level: 1.86E-12 moles per gram
  N-palmitoyl phenylalanine mean level: 1.48E-12 moles per gram
  N-palmitoyl proline mean level: 1.03E-12 moles per gram
  N-palmitoyl serine mean level: 3.33E-11 moles per gram
  N-palmitoyl tryptophan mean level: 2.09E-13 moles per gram
  N-palmitoyl tyrosine mean level: 3.84E-13 moles per gram
  N-palmitoyl valine mean level: 9.76E-13 moles per gram
  N-stearoyl GABA mean level: 3.5E-12 moles per gram
  N-stearoyl alanine mean level: 1.12E-11 moles per gram
  N-stearoyl ethanolamine mean level: 9E-12 moles per gram
  N-stearoyl glycine mean level: 1.64E-11 moles per gram
